From US12049439B2 (OrsoBio, Inc., priority 2018, dated 2024)

System: PC-3 cells
Test: PC-3 Oxygen Rate Consumption (OCR) Assay
Assay type: cell-based
Conditions: Homo sapiens, 0.05 h, medium with 2% FBS, OCR at 3-min post-injection normalized to % increase over DMSO-treated cells, concentration for half-maximal OCR increase, read-out: EC50-PC3-OCR-FBS-3min
How it was run: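 PC-3 cells seeded a day before, equilibrated 1 h in XF medium with 10 mM glucose, 1 mM pyruvate, 2% FBS, non-CO2 at 37 °C. Compound injected after basal OCR reads; OCR at 3 min post-injection normalized as % increase over DMSO, EC50 = half-maximal increase; six replicates.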

Going from `CN(C)S(=O)(=O)Nc1ccc(S(F)(F)(F)(F)F)cc1C(=O)NC12CCC(C#N)(CC1)CC2` [Example 205, N-(4-cyanobicyclo[2.2.2]octan-1-yl)-2-((N,N-dimethylsulfamoyl)amino)-5-(pentafluoro-λ^6-sulfanyl)benzamide] to `CN(C)S(=O)(=O)Nc1ccc(C(F)(F)F)cc1C(=O)NC12CCC(C#N)(CC1)CC2` [Example 190, N-(4-cyanobicyclo[2.2.2]octan-1-yl)-2-((N,N-dimethylsulfamoyl)amino)-5-(trifluoromethyl)benzamide], the EC50 rises from 1.21 µM to 4.15 µM (3.4-fold). The first is the more potent here.

`O=C(NC12CCC(C(F)(F)F)(CC1)CC2)c1cc(OC(F)(F)F)ccc1NS(=O)(=O)C1CCS(=O)(=O)CC1` [Example 210, 2-((1,1-dioxidotetrahydro-2H-thiopyran)-4-sulfonamido)-5-(trifluoromethoxy)-N-(4-(trifluoromethyl)bicyclo[2.2.2]octan-1-yl)benzamide] and `O=C(NC12CCC(C(F)(F)F)(CC1)CC2)c1ccc(Cl)cc1NS(=O)(=O)C1CCS(=O)(=O)CC1` [Example 241, 4-chloro-2-((1,1-dioxidotetrahydro-2H-thiopyran)-4-sulfonamido)-N-(4-(trifluoromethyl)bicyclo[2.2.2]octan-1-yl)benzamide] are within 1.5-fold of each other in EC50: 4.35 µM for the first, 6.38 µM for the second.

Going from `NC(=O)c1ccc(S(=O)(=O)Nc2cc(C(F)(F)F)ccc2C(=O)NC23CC(c4ccccc4)(C2)C3)cc1` [Example 51, 2-((4-carbamoylphenyl)sulfonamido)-N-(3-phenylbicyclo[1.1.1]pentan-1-yl)-4-(trifluoromethyl)benzamide] to `CS(=O)(=O)c1ccc(S(=O)(=O)Nc2cc(C(F)(F)F)ccc2C(=O)NC23CC(F)(C2)C3)cc1` [Example 20, N-(3-fluorobicyclo[1.1.1]pentan-1-yl)-2-((4-(methylsulfonyl)phenyl)sulfonamido)-4-(trifluoromethyl)benzamide], the EC50 falls from 28.8 µM to 14.3 µM (2-fold). The second is the more potent here.

First: CS(=O)(=O)Nc1ccc(SC(F)(F)F)cc1C(=O)NC12CC(C#N)(C1)C2 [Example 243, N-(3-cyanobicyclo[1.1.1]pentan-1-yl)-2-(methylsulfonamido)-5-((trifluoromethyl)thio)benzamide]
Second: CC(C)(C)S(=O)(=O)Nc1ccc(C(F)(F)F)cc1C(=O)NC12CC(C#N)(C1)C2 [Example 164, N-(3-cyanobicyclo[1.1.1]pentan-1-yl)-2-((1,1-dimethylethyl)sulfonamido)-5-(trifluoromethyl)benzamide]
The EC50 of the first is 3.5-fold higher: 6.14 µM for the first, 1.74 µM for the second.

Compared with `CS(=O)(=O)c1ccc(S(=O)(=O)Nc2cc(C(F)(F)F)ccc2C(=O)NC23CC(C#N)(C2)C3)cc1` [Example 18, N-(3-cyanobicyclo[1.1.1]pentan-1-yl)-2-((4-(methylsulfonyl)phenyl)sulfonamido)-4-(trifluoromethyl)benzamide], `N#CC12CC(NC(=O)c3ccc(C(F)(F)F)cc3NS(=O)(=O)c3ccc(OC(F)(F)F)cc3)(C1)C2` [Example 32, N-(3-cyanobicyclo[1.1.1]pentan-1-yl)-2-((4-(trifluoromethoxy)phenyl)sulfonamido)-4-(trifluoromethyl)benzamide] is 75-fold lower in EC50: 114 µM for the first, 1.52 µM for the second. The second is the more potent here.

`CC(C)S(=O)(=O)Nc1cc(C#N)ccc1C(=O)NC12CCC(C#N)(CC1)CC2` [Example 78, 4-cyano-N-(4-cyanobicyclo[2.2.2]octan-1-yl)-2-((1-methylethyl)sulfonamido)benzamide] and `N#Cc1ccc(NS(=O)(=O)N2CCC2)c(C(=O)NC23CCC(C#N)(CC2)CC3)c1` [Example 132, 2-(azetidine-1-sulfonamido)-5-cyano-N-(4-cyanobicyclo[2.2.2]octan-1-yl)benzamide] are within 1.5-fold of each other in EC50: 39.8 µM for the first, 50.9 µM for the second.

Compared with `CC(C)(C)S(=O)(=O)Nc1ccc(C(F)(F)F)cc1C(=O)NC12CCC(C(=O)O)(CC1)CC2` [Example 156, 4-(2-((1,1-dimethylethyl)sulfonamido)-5-(trifluoromethyl)benzamido)bicyclo[2.2.2]octane-1-carboxylic Acid], `CC(C)(C)S(=O)(=O)Nc1ccc(C(F)(F)F)cc1C(=O)NC12CCC(O)(CC1)CC2` [Example 171, 2-((1,1-dimethylethyl)sulfonamido)-N-(4-hydroxybicyclo[2.2.2]octan-1-yl)-5-(trifluoromethyl)benzamide] is lower in EC50: at least 200 µM for the first, 112 µM for the second. The second is the more potent here.

Compared with `CC(C)S(=O)(=O)Nc1ccc(C(F)(F)F)cc1C(=O)NC12CC(C(F)(F)F)(C1)C2` [Example 69, 2-((1-methylethyl)sulfonamido)-5-(trifluoromethyl)-N-(3-(trifluoromethyl)bicyclo[1.1.1]pentan-1-yl)benzamide], `CS(=O)(=O)Nc1ccc(F)cc1C(=O)NC12CC(C(F)(F)F)(C1)C2` [Example 140, 5-fluoro-2-(methylsulfonamido)-N-(3-(trifluoromethyl)bicyclo[1.1.1]pentan-1-yl)benzamide] is 70-fold higher in EC50: 0.518 µM for the first, 36.1 µM for the second. The first is the more potent here.

First: CS(=O)(=O)CCS(=O)(=O)Nc1cc(OC(F)(F)F)ccc1C(=O)NC12CCC(C(F)(F)F)(CC1)CC2 [Example 248, 2-((2-(methylsulfonyl)ethyl)sulfonamido)-4-(trifluoromethoxy)-N-(4-(trifluoromethyl)bicyclo[2.2.2]octan-1-yl)benzamide]
Second: CS(=O)(=O)Nc1ccc(OC(F)(F)F)cc1C(=O)NC12CCC(C#N)(CC1)CC2 [Example 185, N-(4-cyanobicyclo[2.2.2]octan-1-yl)-2-(methylsulfonamido)-5-(trifluoromethoxy)benzamide]
The EC50 of the first is 5.6-fold lower: 5.7 µM for the first, 32 µM for the second. The first is the more potent here.

Compared with `CC(C)(C)c1ccc(S(=O)(=O)Nc2cc(C(F)(F)F)ccc2C(=O)NC23CC(C(F)(F)F)(C2)C3)cc1` [Example 4, 2-((4-(tert-butyl)phenyl)sulfonamido)-4-(trifluoromethyl)-N-(3-(trifluoromethyl)bicyclo[1.1.1]pentan-1-yl)benzamide], `O=C(NC12CC(C(F)(F)F)(C1)C2)c1ccc(C(F)(F)F)cc1NS(=O)(=O)c1ccc(-c2nnn[nH]2)cc1` [Example 159, 2-((4-(1H-tetrazol-5-yl)phenyl)sulfonamido)-4-(trifluoromethyl)-N-(3-(trifluoromethyl)bicyclo[1.1.1]pentan-1-yl)benzamide] is higher in EC50: 0.619 µM for the first, at least 200 µM for the second.

`CCS(=O)(=O)Nc1ccc(C(F)(F)F)cc1C(=O)NC12CCC(C#N)(CC1)CC2` [Example 120, N-(4-cyanobicyclo[2.2.2]octan-1-yl)-2-(ethylsulfonamido)-5-(trifluoromethyl)benzamide] and `Cn1cc(S(=O)(=O)Nc2cc(C(F)(F)F)ccc2C(=O)NC23CC(C(F)(F)F)(C2)C3)cn1` [Example 19, 2-((1-methyl-1H-pyrazole)-4-sulfonamido)-4-(trifluoromethyl)-N-(3-(trifluoromethyl)bicyclo[1.1.1]pentan-1-yl)benzamide] are within 1.5-fold of each other in EC50: 8.01 µM for the first, 6.41 µM for the second.

Going from `O=C(NC12CC(c3ccccc3)(C1)C2)c1ccccc1NS(=O)(=O)c1ccc(-n2ccnc2)cc1` [Example 36, 2-((4-(1H-imidazol-1-yl)phenyl)sulfonamido)-N-(3-phenylbicyclo[1.1.1]pentan-1-yl)benzamide] to `CC(C)(C)S(=O)(=O)Nc1ccc(Br)cc1C(=O)NC12CC(c3ccccc3)(C1)C2` [Example 94, 5-bromo-2-((1,1-dimethylethyl)sulfonamido)-N-(3-phenylbicyclo[1.1.1]pentan-1-yl)benzamide], the EC50 falls from at least 20 µM to 6.16 µM. The second is the more potent here.

Work on `O=C(NC12CC(C(F)(F)F)(C1)C2)c1ccccc1NS(=O)(=O)C(F)(F)F` [Example 144, N-(3-(trifluoromethyl)bicyclo[1.1.1]pentan-1-yl)-2-((trifluoromethyl)sulfonamido)benzamide] yielded an EC50 of 18.6 µM.
